Measurements published in ChEMBL document CHEMBL4219252, “Synthesis, antimycobacterial activity and influence on mycobacterial InhA and PknB of 12-membered cyclodepsipeptides” (Bioorg Med Chem, 2018).
Converted amounts (≈) assume the structure as drawn. The source made the active and inactive calls. The rule behind the calls is not given here.

Experiments:
[1] = target: T1, Serine/threonine-protein kinase PknB (Mycobacterium tuberculosis) (UniProt P9WI81); experiment: Inhibition of Mycobacterium tuberculosis GST-tagged PknB expressed in Escherichia coli assessed as reduction in PknB autophosphorylation at 0.24 to 4.8 uM preincubated for 30 mins followed by [gamma32P]ATP addition measured after 30 mins by scintillation counting method
T1 sequence (whole entry): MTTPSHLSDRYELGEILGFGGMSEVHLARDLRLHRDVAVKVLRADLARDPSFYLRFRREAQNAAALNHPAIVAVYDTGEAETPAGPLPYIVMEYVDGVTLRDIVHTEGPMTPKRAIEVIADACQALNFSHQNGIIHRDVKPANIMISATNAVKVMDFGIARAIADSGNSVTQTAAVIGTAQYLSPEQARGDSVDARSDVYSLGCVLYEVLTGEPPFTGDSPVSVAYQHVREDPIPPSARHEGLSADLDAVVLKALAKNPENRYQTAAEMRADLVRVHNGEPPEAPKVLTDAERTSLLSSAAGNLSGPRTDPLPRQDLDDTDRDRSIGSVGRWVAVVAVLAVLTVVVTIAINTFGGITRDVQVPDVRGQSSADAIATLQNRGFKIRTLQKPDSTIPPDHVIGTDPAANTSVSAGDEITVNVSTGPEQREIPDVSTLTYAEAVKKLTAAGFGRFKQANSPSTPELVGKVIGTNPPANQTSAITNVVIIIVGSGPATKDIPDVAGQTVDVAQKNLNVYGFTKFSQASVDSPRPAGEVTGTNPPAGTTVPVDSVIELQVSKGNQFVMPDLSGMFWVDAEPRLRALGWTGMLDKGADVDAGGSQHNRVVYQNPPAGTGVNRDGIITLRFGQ

[2] = target: T1, Serine/threonine-protein kinase PknB (Mycobacterium tuberculosis); experiment: Induction of Mycobacterium tuberculosis GST-tagged PknB autophosphorylation expressed in Escherichia coli at 4.8 uM preincubated for 30 mins followed by [gamma32P]ATP addition measured after 30 mins by scintillation counting method relative to control
Bacillus spizizenii = experiment: Antibacterial activity against Bacillus subtilis ATCC 6633 incubated overnight at 37 degC measured after 24 hrs by agar diffusion method; type: functional, organism-based
[3] = tested on: Sporobolomyces salmonicolor; experiment: Antifungal activity against Sporobolomyces salmonicolor 549 incubated overnight at 30 degC measured after 24 hrs by agar diffusion method; type: functional, organism-based
Escherichia coli = experiment: Antibacterial activity against Escherichia coli SG458 incubated overnight at 37 degC measured after 24 hrs by agar diffusion method; type: functional, organism-based
[4] = tested on: Mycolicibacterium smegmatis; experiment: Antimycobacterial activity against Mycobacterium smegmatis SG987 incubated overnight at 37 degC measured after 24 hrs by agar diffusion method; type: functional
[5] = target: T1, Serine/threonine-protein kinase PknB (Mycobacterium tuberculosis); experiment: Inhibition of Mycobacterium tuberculosis GST-tagged PknB expressed in Escherichia coli assessed as reduction in PknB autophosphorylation at 4.8 uM preincubated for 30 mins followed by [gamma32P]ATP addition measured after 30 mins by scintillation counting method relative to control
Mycolicibacterium vaccae = experiment: Antimycobacterial activity against Mycobacterium vaccae IMET 10670 incubated overnight at 37 degC measured after 24 hrs by agar diffusion method; type: functional
[6] = tested on: Mycolicibacterium smegmatis; experiment: Antimycobacterial activity against Mycobacterium smegmatis SG987 after 48 hrs by resazurin microtiter assay; type: functional
[7] = tested on: Mycobacterium tuberculosis; experiment: Antimycobacterial activity against Mycobacterium tuberculosis H37Rv after 7 days by BacTiter-Glo microbial cell viability assay; type: functional
[8] = Antiproliferative activity against HUVEC after 72 hrs by CellTiter-Blue1 assay; type: cell-based; settings: human
Mycolicibacterium aurum = experiment: Antimycobacterial activity against Mycobacterium aurum SB66 incubated overnight at 37 degC measured after 24 hrs by agar diffusion method; type: functional
[9] = Antiproliferative activity against human K562 cells after 72 hrs by CellTiter-Blue1 assay; type: cell-based
[10] = Cytotoxicity against human HeLa cells assessed as reduction in cell viability after 72 hrs by CellTiter-Blue1 assay; type: cell-based
[11] = tested on: Mycobacterium tuberculosis; experiment: Antimycobacterial activity against Mycobacterium tuberculosis H37Rv ATCC 27294 by microplate alamar blue assay; type: functional
[12] = Mycolicibacterium smegmatis, SG987, 48 h, read-out: MIC
[13] = Mycobacterium tuberculosis, H37Rv, 168 h, read-out: MIC

SMILES	Activity (Bacillus spizizenii)	Activity [3]	Activity (Escherichia coli)	also measured
C[C@H]1OC(=O)CCC(Cc2ccccc2)NC(=O)[C@@H](NC(=O)OC(C)(C)C)[C@@H](C)OC1=O (stereo in doubt; form 2) [listing 1 of 2 here]	inactive	inactive	inactive	inhibition [1]: inactive; Activity [2]: 60%; fold change (FC) [2]: 2
C[C@H]1OC(=O)COC(=O)CCCNC(=O)[C@H]1NC(=O)c1ccccn1	inactive	inactive	inactive	–
C[C@@H](OC(=O)COCc1ccccc1)[C@H](NC(=O)c1ccccn1)C(=O)NCCCC(=O)OCc1ccccc1	inactive	inactive	inactive	–
C[C@H]1OC(=O)CCC(Cc2ccccc2)NC(=O)[C@@H](NC(=O)c2ncccc2O)[C@@H](C)OC1=O (stereo partly drawn)	inactive	inactive	inactive	diameter of the inhibition zone (DIZ) [4]: 17 mm; inhibition [5]: 35%; diameter of the inhibition zone (DIZ) (Mycolicibacterium vaccae): 21 - 29 mm; MIC [6, 12]: 13.7 µM (≈ 6.43 µg/mL); MIC [7, 13]: 8 µM (≈ 3.76 µg/mL); GI50 at 72 h [8]: > 5 mg/L; diameter of the inhibition zone (DIZ) (Mycolicibacterium aurum): 0 mm; GI50 at 72 h [9]: > 5 mg/L; CC50 at 72 h [10]: > 5 mg/L
C[C@H]1OC(=O)COC(=O)CCC(Cc2ccccc2)NC(=O)[C@H]1NC(=O)OC(C)(C)C (stereo in doubt; form 2) [listing 1 of 2 here]	–	–	–	diameter of the inhibition zone (DIZ) [4]: 21 mm; diameter of the inhibition zone (DIZ) (Mycolicibacterium vaccae): 24 - 31 mm; MIC [6]: 7.2 µM (≈ 3.13 µg/mL); MIC [7, 13]: 4 µM (≈ 1.74 µg/mL); GI50 at 72 h [8]: 5 to 50 mg/L (≈ 11.5 to 115 µM); diameter of the inhibition zone (DIZ) (Mycolicibacterium aurum): 0 mm; GI50 at 72 h [9]: 5 to 50 mg/L (≈ 11.5 to 115 µM); CC50 at 72 h [10]: 5 to 50 mg/L (≈ 11.5 to 115 µM)
COC(=O)/C=C/C(=O)c1ccc(OC)cc1	–	–	–	MIC [11]: 1.14 µM (≈ 0.251 µg/mL)
C[C@H]1OC(=O)COC(=O)CCC(Cc2ccccc2)NC(=O)[C@H]1NC(=O)OC(C)(C)C (stereo in doubt; form 2) [listing 2 of 2 here]	inactive	inactive	inactive	inhibition [5]: 60%
C[C@H]1OC(=O)CCC(Cc2ccccc2)NC(=O)[C@@H](NC(=O)OC(C)(C)C)[C@@H](C)OC1=O (stereo in doubt; form 1)	inactive	inactive	inactive	–
COC(=O)CCC(Cc1ccccc1)NC(=O)[C@@H](NC(=O)OC(C)(C)C)[C@@H](C)OC(=O)[C@@H](C)O (stereo partly drawn)	inactive	inactive	inactive	inhibition [1]: inactive; Activity [4]: inactive; Activity (Mycolicibacterium vaccae): inactive
C[C@H]1OC(=O)COC(=O)CCC(Cc2ccccc2)NC(=O)[C@H]1NC(=O)OC(C)(C)C (stereo in doubt; form 1) [listing 1 of 2 here]	inactive	inactive	inactive	inhibition [5]: 60%
C[C@@H](OCc1ccccc1)C(=O)O[C@H](C)[C@H](NC(=O)c1ccccc1O)C(=O)NCCCC(=O)OCc1ccccc1	inactive	inactive	inactive	–
CC[C@H](C)[C@@H]1NC(=O)C[C@H](CC(C)C)CNC(=O)[C@@H](NC(=O)c2ccccn2)[C@@H](C)OC1=O	inactive	inactive	inactive	Activity [6]: inactive; Activity [7]: inactive
C[C@@H](OCc1ccccc1)C(=O)O[C@H](C)[C@H](NC(=O)c1ccccn1)C(=O)NCCCC(=O)OCc1ccccc1	inactive	inactive	inactive	–
C[C@@H](OCc1ccccc1)C(=O)O[C@H](C)[C@H](NC(=O)c1ncccc1F)C(=O)NCCCC(=O)OCc1ccccc1	inactive	inactive	inactive	–
C[C@H]1OC(=O)c2ccccc2OC(=O)CCNC(=O)[C@H]1NC(=O)c1ncccc1O	inactive	inactive	inactive	Activity [6]: inactive; Activity [7]: inactive
C[C@H]1OC(=O)COC(=O)CCC(Cc2ccccc2)NC(=O)[C@H]1NC(=O)OC(C)(C)C (stereo in doubt; form 1) [listing 2 of 2 here]	–	–	–	diameter of the inhibition zone (DIZ) [4]: 17 mm; diameter of the inhibition zone (DIZ) (Mycolicibacterium vaccae): 20 - 26 mm; MIC [6]: 28.8 µM (≈ 12.5 µg/mL); MIC [7]: 8 µM (≈ 3.48 µg/mL)
C[C@H]1OC(=O)CCCNC(=O)[C@@H](NC(=O)c2ccccn2)[C@@H](C)OC1=O	inactive	inactive	inactive	–
NNC(=O)c1ccncc1 [ISONIAZID]	–	–	–	MIC [6, 12]: 29.2 µM (≈ 4 µg/mL); MIC [7, 13]: 0.31 µM (≈ 0.0425 µg/mL)
C[C@H]1OC(=O)CCCNC(=O)[C@@H](NC(=O)c2ncccc2O)[C@@H](C)OC1=O	inactive	inactive	inactive	–
CC/C(C)=C1\OC(=O)[C@H](C)[C@@H](O)[C@H](Cc2cccnc2)NC(=O)[C@@H](NC(=O)c2ncccc2O)[C@@H](C)OC1=O	–	–	–	inhibition [1]: inactive
C[C@H]1OC(=O)c2ccccc2OC(=O)CCNC(=O)[C@H]1NC(=O)OC(C)(C)C	inactive	inactive	inactive	–
C[C@@H](OC(=O)COCc1ccccc1)[C@H](NC(=O)c1ncccc1F)C(=O)NCCCC(=O)OCc1ccccc1	inactive	inactive	inactive	–
C[C@@H](OC(=O)COCc1ccccc1)[C@H](NC(=O)c1ncccc1O)C(=O)NCCCC(=O)OCc1ccccc1	inactive	inactive	inactive	–
C[C@@H](OC(=O)CO)[C@H](NC(=O)OC(C)(C)C)C(=O)NC(CCC(=O)O)Cc1ccccc1 (stereo partly drawn)	–	–	–	Activity [6]: inactive; Activity [7]: inactive
C[C@H]1OC(=O)CCC(Cc2ccccc2)NC(=O)[C@@H](NC(=O)OC(C)(C)C)[C@@H](C)OC1=O (stereo in doubt; form 2) [listing 2 of 2 here]	–	–	–	diameter of the inhibition zone (DIZ) [4]: 0 mm; diameter of the inhibition zone (DIZ) (Mycolicibacterium vaccae): 0 mm; MIC [7, 13]: 125 µM (≈ 56.1 µg/mL); diameter of the inhibition zone (DIZ) (Mycolicibacterium aurum): 0 mm
C[C@@H](O)C(=O)O[C@H](C)[C@H](NC(=O)OC(C)(C)C)C(=O)NC(CCC(=O)O)Cc1ccccc1 (stereo partly drawn)	–	–	–	Activity [6]: inactive; Activity [7]: inactive
C[C@H]1OC(=O)COC(=O)CCCNC(=O)[C@H]1NC(=O)c1ncccc1O	inactive	inactive	inactive	–
C[C@@H](OCc1ccccc1)C(=O)O[C@H](C)[C@H](NC(=O)c1ncccc1O)C(=O)NCCCC(=O)OCc1ccccc1	inactive	inactive	inactive	–
C[C@@H](OC(=O)COCc1ccccc1)[C@H](NC(=O)c1ccccc1O)C(=O)NCCCC(=O)OCc1ccccc1	inactive	inactive	inactive	–
